Results: patent US7205326B2, “Aniline derivatives, their manufacture and use as pharmaceutical agents” (Hoffmann-La Roche Inc., priority 2003, dated 2007)

Experiments:
HCT116 cells = assay: HCT116 cell proliferation MTT assay; type: cell-based; settings: HCT-116; HCT116 human colon carcinoma cells, MTT assay after 5 days (120 h) incubation, compound 3 uM to 0.15 nM
Description: HCT116 cells (human colon carcinoma cell line) were cultivated in RPMI 1640, 2.5% FCS, 2 mM Glutamine, 100 u/ml Penicillin, 100 ug/ml Streptomycin. For the assay the cells were seeded in 384 well plates, 1000 cells per well, in the same medium
The next day compounds (dissolved 10 mM in DMSO) were added in various concentrations ranging from 3 uM to 0.15 nM. After 5 days the MTT assay was done mainly according to the instructions of the manufacturer (Cell proliferation kit I, MTT, from Roche Molecular Biochemicals). In brief: MTT labeling reagent was added to a final concentration of 0.5 mg/ml, added and incubated for 4 hrs at 37° C., 5% CO2. During this incubation time purple formazan crystals are formed. After addition of the solubilization solution (20% SDS in 0.02 M HCl) the plates were incubated overnight at 37° C., 5% CO2. After careful mixing plates were measured in Victor 2 (scanning multiwell spectrophotometer, Wallac) at 550 nm.
A decrease in number of living cells results in a decrease in the total metabolic activity in the sample. The decrease directly correlates to the amount of purple color resulting from the solubilization of the purple formazan crystals.
Materials: • HCT116 1000 cells in 60 ul per well of 384 well plate (Greiner) • Medium: RPMI 1640, 2.5% FCS, glutamine, pen/strep. • Incubate 1 day at 37° C.
Induction: • Dilution of compound in DMSO: 3 ul 10 mM+27 ul DMSO, dilute 1:3 • Add 2 ul of compound dilution row to 95 ul of medium • Add 10 ul of compound dilution to 60 ul medium in test plate results in 0.3% DMSO per well • Incubate 120 h (5 days) at 37° C., 5% CO2
Analysis: • Add 7 ul MTT ([…]), incubate 4 h at 37° C. • Add 30 ul lysis buffer (20% SDS, 0.04N HCl) per well • Incubate overnight at 37° C.
Measurement: • Victor 2 (scanning multiwell spectrophotometer, Wallac), at 550 nm • Determination of IC50 was done using XL-fit.

| IC50 (HCT116 cells) [nM] | melting point [°C] | SMILES |
| --- | --- | --- |
| 20 to 40 | 183 to 185 | O=C(Nc1ccc(CCCCn2ccnn2)cc1)c1coc(C=Cc2ccc(C(F)(F)F)cc2)n1 [Example 11, 2-[2-(4-Trifluoromethyl-phenyl)-vinyl]-oxazole-4-carboxylic acid [4-(4-[1,2,3]triazol-1-yl-butyl)-phenyl]-amide] |
| < 20 | 112 to 114 | CN(Cc1coc(C=Cc2ccc(C(F)(F)F)cc2)n1)c1ccc(CCCCn2ccnn2)cc1 [Example 3, Methyl-[4-(4-[1,2,3]triazol-1-yl-butyl)-phenyl]-{2-[2-(4-trifluoromethyl-phenyl)-vinyl]-oxazol-4-ylmethyl}-amine] |
| < 20 | 134 to 136 | FC(F)(F)c1ccc(C=Cc2nc(CNc3ccc(OCCCn4ccnn4)cc3)co2)cc1 [Example 9, [4-(3-[1,2,3]Triazol-1-yl-propoxy)-phenyl]-{2-[2-(4-trifluoromethyl-phenyl)-vinyl]-oxazol-4-ylmethyl}-amine] |
| > 40 | 101 to 102 | FC(F)Oc1ccc(C=Cc2nc(CNc3ccc(CCCCn4ccnn4)cc3)co2)cc1 [Example 4, {2-[2-(4-Difluoromethoxy-phenyl)-vinyl]-oxazol-4-ylmethyl}-[4-(4-[1,2,3]triazol-1-yl-butyl)-phenyl]-amine] |
| > 40 | 137 to 138 | CN(Cc1coc(C=Cc2ccc(C(F)(F)F)cc2)n1)c1ccc(OCCCn2ccnn2)cc1 [Example 10, Methyl-[4-(3-[1,2,3]triazol-1-yl-propoxy)-phenyl]-{2-[2-(4-trifluoromethyl-phenyl)-vinyl]-oxazol-4-ylmethyl}-amine] |
| 20 to 40 | 127 to 129 | CN(C(=O)c1coc(C=Cc2ccc(C(F)(F)F)cc2)n1)c1ccc(CCCCn2ccnn2)cc1 [Example 12, 2-[2-(4-Trifluoromethyl-phenyl)-vinyl]-oxazole-4-carboxylic acid methyl-[4-(4-[1,2,3]triazol-1-yl-butyl)-phenyl]-amide] |
| > 40 | 102 to 104 | FC1(F)Oc2ccc(C=Cc3nc(CNc4ccc(CCCCn5ccnn5)cc4)co3)cc2O1 [Example 7, {2-[2-(2,2-Difluoro-benzo[1,3]dioxol-5-yl)-vinyl]-oxazol-4-ylmethyl}-[4-(4-[1,2,3]triazol-1-yl-butyl)-phenyl]-amine] |
